Columns and labels:
[1] = target: Mitogen-activated protein kinase kinase kinase kinase 4 (Homo sapiens, UniProt O95819); test: Selectivity interaction (KinomeScan (DiscoverX)) EUB0000607a MAP4K4; conditions: at 10 µM
[2] = target: Activin receptor type-2B (Homo sapiens) (UniProt Q13705); conditions: at 10 µM
[3] = target: RAC-gamma serine/threonine-protein kinase (Homo sapiens, UniProt Q9Y243); conditions: at 10 µM
[4] = target: Ribosomal protein S6 kinase alpha-6 (Homo sapiens, UniProt Q9UK32); conditions: at 10 µM
[5] = target: Ribosomal protein S6 kinase alpha-1 (Homo sapiens, UniProt Q15418); test: Selectivity interaction (ActivX KiNativ screen (kinase selectivity in THP-1 cell lysates)) EUB0000639a RPS6KA1; assay type: subcellular; conditions: lysate, at 5 µM
Sequence of Ribosomal protein S6 kinase alpha-1 (Q15418 whole entry): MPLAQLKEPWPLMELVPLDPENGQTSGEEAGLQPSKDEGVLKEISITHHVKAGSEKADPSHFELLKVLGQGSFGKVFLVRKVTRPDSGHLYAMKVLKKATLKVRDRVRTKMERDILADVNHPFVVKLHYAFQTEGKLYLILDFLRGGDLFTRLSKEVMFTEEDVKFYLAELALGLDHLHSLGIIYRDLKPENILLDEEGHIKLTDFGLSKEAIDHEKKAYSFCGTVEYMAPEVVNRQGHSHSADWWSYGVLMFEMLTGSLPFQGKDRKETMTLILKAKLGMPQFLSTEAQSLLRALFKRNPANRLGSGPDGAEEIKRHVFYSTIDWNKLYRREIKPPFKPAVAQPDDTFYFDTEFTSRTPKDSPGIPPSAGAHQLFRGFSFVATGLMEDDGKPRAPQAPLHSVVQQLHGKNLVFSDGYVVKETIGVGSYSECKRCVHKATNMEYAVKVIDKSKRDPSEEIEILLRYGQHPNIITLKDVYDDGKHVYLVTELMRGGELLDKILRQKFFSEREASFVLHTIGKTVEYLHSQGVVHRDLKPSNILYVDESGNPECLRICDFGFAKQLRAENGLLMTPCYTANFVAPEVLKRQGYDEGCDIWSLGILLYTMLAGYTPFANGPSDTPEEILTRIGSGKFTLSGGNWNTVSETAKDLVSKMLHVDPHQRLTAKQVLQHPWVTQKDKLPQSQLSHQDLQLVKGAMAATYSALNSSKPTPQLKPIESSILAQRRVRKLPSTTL

[6] = target: T1, STE20-related kinase adapter protein alpha (Homo sapiens) (UniProt Q7RTN6); test: Selectivity interaction (ActivX KiNativ screen (kinase selectivity in THP-1 cell lysates)) EUB0000639a STRADA; assay type: subcellular; conditions: lysate, at 0.04 µM
T1 sequence (whole entry): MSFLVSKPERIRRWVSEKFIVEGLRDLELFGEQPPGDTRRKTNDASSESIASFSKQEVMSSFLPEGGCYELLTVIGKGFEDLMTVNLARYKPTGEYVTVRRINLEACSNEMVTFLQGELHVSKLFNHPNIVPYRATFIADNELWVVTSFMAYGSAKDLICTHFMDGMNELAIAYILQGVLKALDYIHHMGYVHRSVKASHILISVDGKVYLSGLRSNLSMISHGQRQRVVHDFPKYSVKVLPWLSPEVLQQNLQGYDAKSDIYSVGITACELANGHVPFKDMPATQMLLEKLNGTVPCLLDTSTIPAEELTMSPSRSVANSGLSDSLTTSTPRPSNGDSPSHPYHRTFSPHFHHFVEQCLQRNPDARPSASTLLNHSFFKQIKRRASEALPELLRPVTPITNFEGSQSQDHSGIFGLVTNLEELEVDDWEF

[7] = target: Cyclin-dependent kinase-like 3 (Homo sapiens) (UniProt Q8IVW4); test: Selectivity interaction (KinomeScan (DiscoverX)) EUB0000655a CDKL3; conditions: at 10 µM
[8] = target: Serine/threonine-protein kinase 24 (Homo sapiens) (UniProt Q9Y6E0); test: Selectivity interaction (KinomeScan (DiscoverX)) EUB0001079a STK24; conditions: at 1 µM
Sequence of Serine/threonine-protein kinase 24 (Homo sapiens) (Q9Y6E0 whole entry, looked up): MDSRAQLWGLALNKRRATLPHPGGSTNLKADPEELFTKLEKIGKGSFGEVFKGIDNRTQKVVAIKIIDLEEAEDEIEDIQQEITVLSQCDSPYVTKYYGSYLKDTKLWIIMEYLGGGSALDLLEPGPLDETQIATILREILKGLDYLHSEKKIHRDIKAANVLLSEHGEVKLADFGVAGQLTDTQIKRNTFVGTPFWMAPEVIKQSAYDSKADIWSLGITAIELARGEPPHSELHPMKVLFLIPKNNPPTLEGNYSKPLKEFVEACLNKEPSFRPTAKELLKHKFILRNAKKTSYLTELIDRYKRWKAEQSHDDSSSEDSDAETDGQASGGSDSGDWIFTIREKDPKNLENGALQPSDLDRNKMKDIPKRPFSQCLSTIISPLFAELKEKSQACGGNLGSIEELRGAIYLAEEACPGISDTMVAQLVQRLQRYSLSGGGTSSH

[9] = target: Mitogen-activated protein kinase 14 (Homo sapiens, UniProt Q16539); test: Selectivity interaction (Kinase panel (KiNativ target engagement assay in Jurkat cells)) EUB0001635a MAPK14; assay type: cell-based; conditions: Selectivity number of off-targets 0.0, Selectivity number of targets 233.0, Source Knowledge https://www.sciencedirect.com/science/article/pii/S2451945619300674?via%3Dihub, at 1 µM
Sequence of Mitogen-activated protein kinase 14 (Q16539 whole entry): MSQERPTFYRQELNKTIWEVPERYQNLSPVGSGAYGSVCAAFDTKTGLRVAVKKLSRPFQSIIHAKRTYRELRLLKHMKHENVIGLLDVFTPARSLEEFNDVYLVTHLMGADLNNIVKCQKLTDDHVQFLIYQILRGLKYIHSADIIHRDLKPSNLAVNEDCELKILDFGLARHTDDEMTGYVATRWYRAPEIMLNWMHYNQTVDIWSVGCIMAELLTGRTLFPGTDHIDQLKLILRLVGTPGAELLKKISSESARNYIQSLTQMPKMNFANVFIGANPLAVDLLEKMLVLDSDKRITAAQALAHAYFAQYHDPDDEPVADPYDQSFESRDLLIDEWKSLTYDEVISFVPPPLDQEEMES

[10] = target: Dual specificity mitogen-activated protein kinase kinase 2 (Homo sapiens) (UniProt P36507); test: Selectivity interaction (KinomeScan (DiscoverX)) EUB0000229b MAP2K2; conditions: at 10 µM
Sequence of Dual specificity mitogen-activated protein kinase kinase 2 (Homo sapiens) (P36507 whole entry): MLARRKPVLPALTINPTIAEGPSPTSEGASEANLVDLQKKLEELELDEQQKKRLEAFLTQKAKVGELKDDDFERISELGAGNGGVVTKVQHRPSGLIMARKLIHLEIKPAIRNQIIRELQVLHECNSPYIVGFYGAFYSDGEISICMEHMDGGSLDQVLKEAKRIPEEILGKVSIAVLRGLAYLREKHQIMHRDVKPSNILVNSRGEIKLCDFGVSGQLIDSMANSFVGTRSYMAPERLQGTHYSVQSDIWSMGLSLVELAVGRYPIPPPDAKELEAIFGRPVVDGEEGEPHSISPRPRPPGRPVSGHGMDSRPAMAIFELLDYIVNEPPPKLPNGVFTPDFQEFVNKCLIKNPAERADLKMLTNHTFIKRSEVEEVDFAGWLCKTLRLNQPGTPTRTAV

[11] = target: T2, Inhibitor of nuclear factor kappa-B kinase subunit beta (Homo sapiens) (UniProt O14920); test: Selectivity interaction (KinomeScan (DiscoverX)) EUB0000092b IKBKB; conditions: at 10 µM
T2 sequence (whole entry): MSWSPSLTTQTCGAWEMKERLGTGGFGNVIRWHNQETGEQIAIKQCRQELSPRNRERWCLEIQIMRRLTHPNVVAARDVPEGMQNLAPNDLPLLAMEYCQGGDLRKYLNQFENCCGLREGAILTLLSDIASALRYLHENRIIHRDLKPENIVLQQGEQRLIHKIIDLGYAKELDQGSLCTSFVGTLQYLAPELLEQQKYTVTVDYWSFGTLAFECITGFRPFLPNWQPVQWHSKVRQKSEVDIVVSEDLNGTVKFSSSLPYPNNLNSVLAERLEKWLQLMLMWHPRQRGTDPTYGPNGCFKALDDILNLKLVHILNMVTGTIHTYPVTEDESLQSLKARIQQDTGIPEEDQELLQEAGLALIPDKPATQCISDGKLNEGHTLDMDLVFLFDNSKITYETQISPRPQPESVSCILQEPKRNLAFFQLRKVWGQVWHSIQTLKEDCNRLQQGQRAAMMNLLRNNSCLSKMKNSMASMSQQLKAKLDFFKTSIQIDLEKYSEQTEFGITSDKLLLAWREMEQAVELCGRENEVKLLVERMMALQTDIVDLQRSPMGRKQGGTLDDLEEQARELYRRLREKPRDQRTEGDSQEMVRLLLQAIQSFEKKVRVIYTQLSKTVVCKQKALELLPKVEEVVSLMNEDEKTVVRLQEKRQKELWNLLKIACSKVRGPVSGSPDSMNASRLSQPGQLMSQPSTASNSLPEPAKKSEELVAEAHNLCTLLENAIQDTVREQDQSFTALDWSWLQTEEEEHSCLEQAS

[12] = target: High affinity nerve growth factor receptor (Homo sapiens, UniProt P04629); test: Selectivity interaction (KinomeScan (DiscoverX)) EUB0000092b NTRK1; conditions: at 10 µM
[13] = target: Tyrosine-protein kinase ABL2 (Homo sapiens, UniProt P42684); test: Selectivity interaction (ActivX KiNativ screen (ex vivo kinase selectivity in human PBMCs)) EUB0001619a ABL2; assay type: cell-based; conditions: PBMC, at 1 µM
Sequence of Tyrosine-protein kinase ABL2 (P42684 whole entry): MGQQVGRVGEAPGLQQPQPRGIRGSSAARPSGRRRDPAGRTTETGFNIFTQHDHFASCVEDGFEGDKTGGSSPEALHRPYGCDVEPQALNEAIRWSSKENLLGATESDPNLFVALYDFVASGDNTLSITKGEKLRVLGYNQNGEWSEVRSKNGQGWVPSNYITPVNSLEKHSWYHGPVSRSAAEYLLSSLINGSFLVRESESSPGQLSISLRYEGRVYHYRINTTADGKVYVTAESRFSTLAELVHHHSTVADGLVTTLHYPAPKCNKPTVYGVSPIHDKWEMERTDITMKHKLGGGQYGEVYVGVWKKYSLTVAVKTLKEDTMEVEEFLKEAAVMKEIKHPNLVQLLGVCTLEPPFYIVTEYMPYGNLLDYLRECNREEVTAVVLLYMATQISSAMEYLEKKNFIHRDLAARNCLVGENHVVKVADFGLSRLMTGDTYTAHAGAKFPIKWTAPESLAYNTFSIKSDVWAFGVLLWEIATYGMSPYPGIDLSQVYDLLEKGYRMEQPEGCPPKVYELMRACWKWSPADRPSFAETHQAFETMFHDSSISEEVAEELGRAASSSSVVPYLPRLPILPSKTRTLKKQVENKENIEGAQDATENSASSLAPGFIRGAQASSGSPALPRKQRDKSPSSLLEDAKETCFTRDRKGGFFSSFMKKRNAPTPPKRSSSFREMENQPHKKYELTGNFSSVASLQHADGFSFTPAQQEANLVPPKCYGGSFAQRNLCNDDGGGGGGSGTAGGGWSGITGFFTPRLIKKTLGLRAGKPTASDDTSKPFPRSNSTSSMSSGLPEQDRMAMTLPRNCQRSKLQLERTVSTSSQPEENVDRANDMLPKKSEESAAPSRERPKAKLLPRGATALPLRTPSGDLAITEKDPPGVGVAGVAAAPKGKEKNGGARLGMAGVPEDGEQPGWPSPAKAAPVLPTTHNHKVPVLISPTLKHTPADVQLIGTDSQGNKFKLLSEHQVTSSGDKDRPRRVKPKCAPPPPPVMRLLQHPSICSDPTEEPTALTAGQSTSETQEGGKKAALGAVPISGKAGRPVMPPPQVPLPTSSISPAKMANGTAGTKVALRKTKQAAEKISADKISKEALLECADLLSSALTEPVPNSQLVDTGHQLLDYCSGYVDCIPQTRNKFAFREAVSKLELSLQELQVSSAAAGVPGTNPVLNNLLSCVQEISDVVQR

[14] = target: 5'-AMP-activated protein kinase catalytic subunit alpha-2 (Homo sapiens) (UniProt P54646); test: Selectivity interaction (ActivX KiNativ screen (ex vivo kinase selectivity in human PBMCs)) EUB0001619a PRKAA2; assay type: cell-based; conditions: PBMC, at 1 µM
Sequence of 5'-AMP-activated protein kinase catalytic subunit alpha-2 (Homo sapiens) (P54646 whole entry, looked up): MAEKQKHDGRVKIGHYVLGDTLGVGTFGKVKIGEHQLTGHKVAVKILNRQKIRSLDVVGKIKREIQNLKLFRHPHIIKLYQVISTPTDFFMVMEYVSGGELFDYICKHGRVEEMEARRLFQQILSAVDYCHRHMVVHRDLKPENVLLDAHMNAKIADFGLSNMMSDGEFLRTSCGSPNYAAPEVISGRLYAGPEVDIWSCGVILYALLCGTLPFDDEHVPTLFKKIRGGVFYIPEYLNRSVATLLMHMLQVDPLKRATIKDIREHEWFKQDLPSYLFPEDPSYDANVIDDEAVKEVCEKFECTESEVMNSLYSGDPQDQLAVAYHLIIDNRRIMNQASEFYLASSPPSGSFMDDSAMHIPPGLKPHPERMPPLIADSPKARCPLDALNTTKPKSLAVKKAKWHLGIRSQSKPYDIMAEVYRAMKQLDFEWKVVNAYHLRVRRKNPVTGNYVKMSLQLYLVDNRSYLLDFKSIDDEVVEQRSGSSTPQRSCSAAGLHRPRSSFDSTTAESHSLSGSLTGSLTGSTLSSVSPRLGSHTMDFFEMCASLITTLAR

[15] = target: Serine/threonine-protein kinase 25 (Homo sapiens) (UniProt O00506); test: Selectivity interaction (ActivX KiNativ screen (ex vivo kinase selectivity in human PBMCs)) EUB0001619a STK25; assay type: cell-based; conditions: PBMC, at 1 µM
Sequence of Serine/threonine-protein kinase 25 (Homo sapiens) (O00506 whole entry, looked up): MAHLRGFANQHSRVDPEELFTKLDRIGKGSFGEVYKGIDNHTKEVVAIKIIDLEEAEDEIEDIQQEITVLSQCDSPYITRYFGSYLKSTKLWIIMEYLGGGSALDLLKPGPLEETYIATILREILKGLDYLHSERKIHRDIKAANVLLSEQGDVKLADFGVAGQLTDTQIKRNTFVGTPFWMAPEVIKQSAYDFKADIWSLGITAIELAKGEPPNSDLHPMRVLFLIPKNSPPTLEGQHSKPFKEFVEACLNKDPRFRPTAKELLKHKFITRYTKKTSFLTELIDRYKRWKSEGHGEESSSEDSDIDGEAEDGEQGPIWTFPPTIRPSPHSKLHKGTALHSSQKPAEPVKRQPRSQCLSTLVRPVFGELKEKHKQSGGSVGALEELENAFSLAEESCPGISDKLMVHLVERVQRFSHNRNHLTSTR

Sequence of RAC-gamma serine/threonine-protein kinase (Q9Y243 whole entry): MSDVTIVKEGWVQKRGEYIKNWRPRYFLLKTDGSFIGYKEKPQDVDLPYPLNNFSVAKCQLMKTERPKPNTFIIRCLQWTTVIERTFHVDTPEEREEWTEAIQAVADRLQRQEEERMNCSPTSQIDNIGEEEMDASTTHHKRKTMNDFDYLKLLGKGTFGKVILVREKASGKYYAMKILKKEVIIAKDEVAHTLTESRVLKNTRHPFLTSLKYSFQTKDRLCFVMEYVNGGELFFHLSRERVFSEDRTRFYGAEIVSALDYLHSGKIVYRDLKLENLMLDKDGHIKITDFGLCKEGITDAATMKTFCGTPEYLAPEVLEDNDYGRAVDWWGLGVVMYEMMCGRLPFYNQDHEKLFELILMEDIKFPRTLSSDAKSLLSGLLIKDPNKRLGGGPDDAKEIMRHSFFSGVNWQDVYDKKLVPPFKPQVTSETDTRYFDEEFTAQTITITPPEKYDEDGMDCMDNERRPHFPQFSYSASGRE

CNC(=O)Nc1ccc(-c2nc(N3CC4CCC(C3)O4)c3cnn(C4CCC5(CC4)OCCO5)c3n2)cc1
% of control [1]: 85%

CCN(CC)CCCCNc1ncc2cc(-c3cc(OC)cc(OC)c3)c(NC(=O)NC(C)(C)C)nc2n1
% of control [2]: 100% | % of control [3]: 100% | % of control [4]: 100%

CC[C@@H]1[C@H](F)C(=O)N[C@@H]1COc1nccc2cc(C(N)=O)c(OC)cc12 [ZIMLOVISERTIB]
% of inhibition [5]: -38% | % of inhibition [6]: -6%

CN(C)CCOc1ccc(-c2nc(-c3ccncc3)c(-c3ccc4c(c3)CC/C4=N\O)[nH]2)cc1
% of control [7]: 100%

Nc1cnc(N2CCc3cc(S(=O)(=O)Nc4c(F)cc(Cl)cc4F)cc(N4CCCC4=O)c32)nc1 [TP-020n]
% of control [8]: 100%

C=CC(=O)Nc1ccc(C(=O)Nc2[nH]nc3c2CN(C(=O)N[C@H](CN(C)C)c2ccccc2)C3(C)C)cc1
% of engagement [9]: -6.9%

COc1cc(N(C)c2ccnc3ccc(C(F)(F)F)cc23)cc(OC)c1OC
% binding [10]: 68%

CCC(=O)N1CCN(c2ccc(-n3c(=O)ccc4cnc5ccc(-c6cnc7ccccc7c6)cc5c43)cc2C(F)(F)F)CC1
% of control [11]: 61% | % of control [12]: 64%

N#Cc1cccc(-c2c[nH]c3ncnc(N4CCOCC4)c23)c1
% of inhibition [13]: -1% | % of inhibition [14]: 27% | % of inhibition [15]: 61%
